Laboratory results from article PMC12087874, “Biaryl Phosphates and Phosphonates as Selective Inhibitors of the Transcription Factor STAT4” (Angewandte Chemie (International Ed. in English), 2025).

Legend:
STAT5a = target: T1, STAT5a (Homo sapiens, UniProt P42229); test: Competitive fluorescence polarization (FP) assay, STAT5a SH2 domain; type: binding; conditions: for Ki: Ki derived from IC50; for IC50: mean ± SD, n = 3
T1 sequence (P42229 1-794): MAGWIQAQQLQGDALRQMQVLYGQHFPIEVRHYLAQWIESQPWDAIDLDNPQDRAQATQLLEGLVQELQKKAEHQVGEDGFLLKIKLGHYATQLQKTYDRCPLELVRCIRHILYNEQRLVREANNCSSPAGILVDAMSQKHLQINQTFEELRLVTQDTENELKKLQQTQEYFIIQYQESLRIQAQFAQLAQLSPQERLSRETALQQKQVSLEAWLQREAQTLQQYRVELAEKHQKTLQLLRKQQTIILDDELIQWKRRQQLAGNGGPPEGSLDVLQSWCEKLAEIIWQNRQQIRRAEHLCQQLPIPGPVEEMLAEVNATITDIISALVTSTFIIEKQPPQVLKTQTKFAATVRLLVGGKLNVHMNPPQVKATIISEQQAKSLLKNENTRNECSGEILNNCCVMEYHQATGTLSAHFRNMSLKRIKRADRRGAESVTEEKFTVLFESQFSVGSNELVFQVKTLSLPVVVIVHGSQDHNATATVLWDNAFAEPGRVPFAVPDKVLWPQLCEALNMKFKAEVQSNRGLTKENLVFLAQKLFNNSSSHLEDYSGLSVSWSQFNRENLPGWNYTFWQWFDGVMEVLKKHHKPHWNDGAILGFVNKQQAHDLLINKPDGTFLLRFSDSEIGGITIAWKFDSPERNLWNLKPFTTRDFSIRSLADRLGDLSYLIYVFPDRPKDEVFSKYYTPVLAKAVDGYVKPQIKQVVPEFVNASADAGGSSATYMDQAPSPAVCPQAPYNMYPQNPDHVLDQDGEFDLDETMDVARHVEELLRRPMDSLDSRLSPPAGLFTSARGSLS
Experimental: (§1) Fluorescence polarization assays
(§2) Competitive fluorescence polarization assays, which measure the abilities of test compounds (dissolved in DMSO) to displace a fluorescent-labeled peptide from the SH2 domain of a STAT protein, were carried out essentially as described. Proteins were used at the following final concentrations: 23 nM or 28 nM for STAT4; between 56 nM and 91 nM for STAT1; 107 nM or 110 nM for STAT3; between 131 nM and 177 nM for STAT5a; between 62 nM and 85 nM for STAT5b; and 101 nM or 106 nM for STAT6. These concentrations represent the approximate […]
(§3) dissociation constant for peptide binding of the respective protein batches used in the assays.
(§4) The following peptides were used: 5-carboxyfluorescein-GpYLPQNID-OH for STAT4; 5-carboxyfluorescein-GpYDKPHVL for STAT1; 5-carboxyfluorescein-GpYLPQTV-NH2 for STAT3; 5-carboxyfluorescein-GpYLVLDKW for STAT5a/b, and 5-carboxyfluorescein- […]
(§5) Gp[…]-OH for STAT6. All peptides were used at a final concentration of 10 nM. The buffer consisted of 10 mM Tris (pH 8.0), 50 mM NaCl, 1 mM EDTA, 1 mM DTT, 0 .1 % Nonidet P-40 substitute, and 2 % DMSO. After incubation of protein and test compound for 1 h at room temperature, the fluorescent -labeled peptide was added. Samples were transferred to 384 - well microtiter plates and fluorescence polarization was read after an additional 60 min of incubation time. Measurements were performed in triplicate. Percent binding was calculated based on a logarithmic curve fit using OriginPro 8G software. IC 50 values were converted to Ki-values via the published equation[3] using the corresponding Excel spread sheet […]
(§6) https://websites.umich.edu/~shaomengwanglab/software/calc_ki/index.html .
(§7) Error bars represent standard deviations. Ligand efficiencies (LE) were calculated by the formula LE = -1,37 x log Ki / number of non-hydrogen atoms.[4] […]

STAT6 = target: T2, STAT6 (Homo sapiens, UniProt P42226); test: Competitive fluorescence polarization (FP) assay, STAT6 SH2 domain; type: binding; conditions: for Ki: Ki derived from IC50; for IC50: mean ± SD, n = 3
T2 sequence (P42226 1-847): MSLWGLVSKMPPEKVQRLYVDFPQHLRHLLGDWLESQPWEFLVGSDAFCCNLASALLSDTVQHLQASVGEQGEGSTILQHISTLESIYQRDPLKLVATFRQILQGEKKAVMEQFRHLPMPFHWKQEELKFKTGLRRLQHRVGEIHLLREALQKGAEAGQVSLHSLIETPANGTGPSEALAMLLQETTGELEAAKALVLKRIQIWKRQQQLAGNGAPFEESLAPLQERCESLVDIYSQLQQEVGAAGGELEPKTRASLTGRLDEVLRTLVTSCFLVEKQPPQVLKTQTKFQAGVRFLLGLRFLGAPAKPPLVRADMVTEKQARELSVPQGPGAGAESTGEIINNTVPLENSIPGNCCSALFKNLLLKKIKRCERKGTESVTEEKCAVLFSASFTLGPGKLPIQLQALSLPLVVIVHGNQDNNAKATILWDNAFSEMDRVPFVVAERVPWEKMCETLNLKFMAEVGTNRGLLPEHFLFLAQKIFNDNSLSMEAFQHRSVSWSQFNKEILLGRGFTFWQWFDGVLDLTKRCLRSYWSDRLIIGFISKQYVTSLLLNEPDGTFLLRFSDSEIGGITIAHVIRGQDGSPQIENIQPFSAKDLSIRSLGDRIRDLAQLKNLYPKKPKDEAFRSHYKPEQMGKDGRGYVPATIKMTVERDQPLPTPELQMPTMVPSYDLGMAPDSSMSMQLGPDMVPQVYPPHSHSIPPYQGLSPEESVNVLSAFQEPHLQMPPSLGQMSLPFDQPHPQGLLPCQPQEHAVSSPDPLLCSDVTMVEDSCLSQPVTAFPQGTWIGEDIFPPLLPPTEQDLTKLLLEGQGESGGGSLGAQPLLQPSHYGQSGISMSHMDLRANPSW
Experimental: as §1, §2, §3, §4, §5, §6, §7

Row | SMILES | Ki (STAT5a) | IC50 (STAT5a) | Ki (STAT6) | IC50 (STAT6)
1 | O=P(O)(O)Oc1ccc(-c2ccccc2)cc1 [Compound 1, para‐biphenyl phosphate] | 22 ± 2 µM | 42 ± 4 µM | 7.3 ± 0.4 µM | 15 ± 1 µM
2 | O=P(O)(O)Oc1ccc(-c2ccccc2)cc1F [Compound 6h] | 28 ± 1 µM | 57 ± 2 µM | 46 ± 3 µM | 90 ± 7 µM
3 | Cc1cc(-c2ccc(C(F)(F)P(=O)(O)O)c(F)c2)cs1 [Compound 8k] | 39 ± 1 µM | 79 ± 2 µM | 13 ± 1 µM | 26 ± 2 µM
4 | O=P(O)(O)Oc1ccc(-c2ccc3ccccc3c2)cc1F [Compound 6m] | 22 ± 1 µM | 45 ± 2 µM | 29 ± 2 µM | 57 ± 4 µM
5 | O=P(O)(O)Oc1ccc(-c2ccc3ccccc3c2)cc1 [Compound 6g] | 27 ± 2 µM | 55 ± 4 µM | 9.3 ± 1.1 µM | 19 ± 2 µM
6 | O=P(O)(O)C(F)(F)c1ccc(-c2ccc3ccccc3c2)cc1F [Compound 8a] | 27 ± 1 µM | 54 ± 3 µM | 15 ± 2 µM | 30 ± 3 µM
